In US20030086987A1, “Salvianolic acid B” (priority 2001, published 2003):

Columns and labels:
[1] = tested on: New Zealand White rabbits; test: Intima/media area ratio in cholesterol-fed rabbits after femoral artery denudation; assay type: in vivo; conditions: 2% cholesterol diet, six weeks, probucol 1.5 g/day, salvianolic acid B 375 mg/day; for ratio of the intima area to the media area, thoracic aorta section: CT group 0.1; for ratio of the intima area to the media area, aortic arch section: CT group 0.22; for ratio of the intima area to the media area, abdominal aorta section: CT group 0.58
Description: New Zealand White rabbits were randomly divided into three groups. […] Another group was fed with the control diet containing 1.5 g/day probucol (P group), and the third group was fed with the control diet containing 375 mg/day salvianolic acid B (Sal B group). After being fed for three weeks, all rabbits underwent a femoral artery denudation. After the operation, the diet fed to each group was maintained for anther three weeks. […] Thin sections (5 μm thick) were stained with Mayer's hematoxylin-eosin solution. […] See, e.g., Gordon et al. (1992) Proc […] USA 89: 11312-11316. In the CT group, the ratio of the intima area to the media area of the aortic arch section was 0.22 (±0.04).

[2] = tested on: IL-1β; test: Inhibition of oxLDL induced IL-1β production in HASMCs, sandwich ELISA; assay type: cell-based, Human; conditions: 1, 2.5 and 10 μg/mL for 24 hr, then 20 μg/mL oxLDL for 24 hr
Description: (§1) Human aortic smooth muscle cells (HASMCs, Cascade Biologics, Inc. Portland, Oreg.) were cultured in Medium 231 (Cascade Biologics, Inc.), supplemented with 5% smooth muscle growth serum (SMGS), 100 untis/mL penicillin, 100 μg/mL streptomycin, 1.25 μ/mL Fungizone (amphotericin B) at 37° C. in 5% CO2 saturated humidity atmosphere. The medium was changed every 4 days, and cells were detached by treatment with 0.05% trypsin, 0.02% EDTA solutions. […] Before each experiment, the medium was removed, and cells were washed and then cultured in serum-free medium containing the supplements indicated above but without SMGS. […] IL-1 production was determined with a sandwich ELISA using anti-IL-1 antibodies (e.g., IL-1β and IL-1ra ELISA kits from R&D Systems and Endogen, Inc. respectively).

[3] = tested on: IL-1ra; test: Inhibition of oxLDL induced IL-1ra production in HASMCs, sandwich ELISA; assay type: cell-based, Human; conditions: 1, 2.5 and 10 μg/mL for 24 hr, then 20 μg/mL oxLDL for 24 hr
Description: as §1

[4] = tested on: caspase-3; test: Inhibition of oxLDL induced caspase-3 activation, Western blot in HASMCs; assay type: cell-based, Human; conditions: 1 or 10 μg/mL for 24 hr, then 20 μg/mL oxLDL for 24 hr
Description: Human aortic smooth muscle cells (HASMCs, Cascade Biologics, Inc. Portland, Oreg.) were cultured in Medium 231 (Cascade Biologics, Inc.), supplemented with 5% smooth muscle growth serum (SMGS), 100 untis/mL penicillin, 100 μg/mL streptomycin, 1.25 μ/mL Fungizone (amphotericin B) at 37° C. in 5% CO2 saturated humidity atmosphere. The medium was changed every 4 days, and cells were detached by treatment with 0.05% trypsin, 0.02% EDTA solutions. […] Before each experiment, the medium was removed, and cells were washed and then cultured in serum-free medium containing the supplements indicated above but without SMGS. […] The sample solution was heated at 100° C. for 5 min, cooled down to room temperature, and subjected to 12% SDS-polyacrylamide gel electrophoresis. Then, proteins were transferred to PVDF membranes, blocked with 5% nonfat milk in Tris-buffered saline-Tween 20 (0.1%) at room temperature for 2 hr, and incubated overnight at 4° C. with […] anti-caspase-3 antibody (dilution 1:1000). The membranes were washed three times in Tris-buffered saline-Tween 20, and antibody reactions were detected using horseradish peroxidase-conjugated goat anti-rabbit IgG (0.2 μg/mL) and LumiGLO chemiluminescent detection reagents (Bradford (1976) Analytical Biochem 72: 248-254). Activated caspase-3 (17 kD) was detected in HASMCs after oxLDL treatment.

[5] = tested on: apoE (−) mice; test: Atherosclerotic area in the apoE (−) mice; assay type: in vivo; conditions: 0.15% cholesterol diet with 0.25% salvianolic acid B or 2% SAGE, 113 days
Description: 25-week apoE (−) mice from Jackson Laboratory were randomly divided into three groups. Animals in the control group (CT group) were fed with a diet containing 0.15% cholesterol (w/w) (a control diet). Second group (SB group) was fed with the control diet containing 0.25% salvianolic acid B (w/w); and third group (SAGE group) was fed with the control diet containing 2% SAGE (w/w). The feeding period was 113 days. SAGE was prepared as follows:
Salvia miltiorrhiza extract was obtained from extracts of the sliced and ground roots of Salvia miltiorrhiza by using an aqueous ethanol solution (water: ethanol =4:1, v/v). The weight to volume ration of Salvia miltiorrhiza to extraction solvent was 1:10 (w/v).
Angelica sinensis extract was obtained from ethanolic extracts (1:10, w/v).
Glycyrrhizae radix (Glycyrrhiza uralensis) extract was obtained from ethanolic extracts (1:10, w/v).
The weight ratio of Salvia miltiorrhiza extract, Angelica sinensis extract, and Glycyrrhiza uralensis extract was 2:1:1, respectively, based on the dried weights of the raw herbs used.

[6] = tested on: Human aortic smooth muscle cells (HASMCs); test: Rescue of oxLDL induced cell death, MTT assay; assay type: cell-based; conditions: then 40 μg/mL oxLDL for 24 hr, oxLDL alone 23.5%
Description: Human aortic smooth muscle cells (HASMCs, Cascade Biologics, Inc. Portland, Oreg.) were cultured in Medium 231 (Cascade Biologics, Inc.), supplemented with 5% smooth muscle growth serum (SMGS), 100 untis/mL penicillin, 100 μg/mL streptomycin, 1.25 μ/mL Fungizone (amphotericin B) at 37° C. in 5% CO2 saturated humidity atmosphere. The medium was changed every 4 days, and cells were detached by treatment with 0.05% trypsin, 0.02% EDTA solutions. […] Before each experiment, the medium was removed, and cells were washed and then cultured in serum-free medium containing the supplements indicated above but without SMGS. […] Then, 40 μg/mL oxLDL was added to the incubated medium for another 24 hr. The cytotoxic effect can be determined using the 3-(4,5-dimethylthiazol-2-yl)-2,5-diphenyltetrazolium bromide (MTT) assay method described in Boyd (In Principle of Practice of Oncology, […]., and Rosenberg, S. A. (Eds) Vol. 3, PPO Update, No. 10, 1989).

Compound	ratio of the intima area to the media area, thoracic aorta section [1]	ratio of the intima area to the media area, aortic arch section [1]	ratio of the intima area to the media area, abdominal aorta section [1]	oxLDL induced IL-1β production [2]	oxLDL induced IL-1ra production [3]	activated caspase-3 (17 kD) after oxLDL treatment [4]	Inhibition (%) of atherosclerosis compared with control group [5] [%]	Intima area ([5]; mean ± S.D.)	Media area ([5]; mean ± S.D.)	Intima/Media (ratio) ([5]; mean ± S.D., CT 0.770)	cell viability of the HASMCs ([6]; 1 μg/mL for 24 hr)	cell viability of the HASMCs ([6]; 1.25 μg/mL for 24 hr)	cell viability of the HASMCs ([6]; 10 μg/mL for 24 hr)	cell viability of the HASMCs ([6]; 20 μg/mL for 24 hr)
CC(C)(Sc1cc(C(C)(C)C)c(O)c(C(C)(C)C)c1)Sc1cc(C(C)(C)C)c(O)c(C(C)(C)C)c1 [probucol, reference compound]	about 0.03	about 0.1	about 0.33											
O=C(/C=C/c1ccc(O)c2c1[C@H](C(=O)O[C@H](Cc1ccc(O)c(O)c1)C(=O)O)[C@@H](c1ccc(O)c(O)c1)O2)O[C@H](Cc1ccc(O)c(O)c1)C(=O)O [salvianolic acid B]	about 0.02	about 0.07	about 0.26	inhibit	inhibit	no activated caspase-3 was observed	83	1,563 ± 2,504 10^3 μm^2	9,763 ± 2,239 10^3 μm^2	0.128 ± 0.170	68.3% (±5.3%)	57.5% (±14.4%)	57.6% (±18.7%)	38.3% (±18.8%)
